Reference: US20100048564A1, “FUSED BICYCLIC HETEROARYL DERIVATIVE” (DAIICHI SANKYO COMPANY, LIMITED, priority 2007, published 2010)
Where two headings read alike, the source gives them in different places. One block for each compound: values may come before it.

Test system: Rat white adipocytes
Assay: Adipocyte differentiation promotion test (Test Example 4)
Type: cell-based
Conditions: for EC50: 120 h
Method: Rat white adipocytes included in a white adipocyte culture kit purchased from Primary Cell Co., Ltd. were subjected to this test. A medium included in the white adipocyte culture kit purchased from Primary Cell Co., Ltd. was used as a growth medium or a differentiation-inducing medium.
The whole of the transportation medium was extracted immediately after the arrival of the purchased cells. The growth medium was added in an amount of 5 ml(/25 cm^2-flask), and the cells were cultured for one day. Thereafter, a cell suspension (83,000 cells/mL) was prepared using the growth medium. The cell suspension was dispensed to a 96-well type-I collagen-coated microplate (SUMITOMO BAKELITE Co., Ltd.) at 5,000 cells/well (60 μL/well). A well to which only the growth medium not containing cells was dispensed (blank well) was provided as a blank group in each plate.
Further, 1) for the test compound-added group, a 100 μM solution of the test compound in DMSO was diluted 20-fold with the differentiation-inducing medium; this was added at 3 μL/well (final test compound concentration: 100 nM, final DMSO concentration: 0.1% (v/v)) to the wells into which the cells were seeded. […] 3) For the negative control group, DMSO diluted 20-fold with the differentiation-inducing medium was added at 3 μL/well (final DMSO concentration: 0.1% (v/v)) to the wells into which the cells were seeded.
After culturing for five days, the whole of the differentiation-inducing medium was removed from each well, and 60 μL of a 10% (v/v) formaldehyde solution (fixative solution) was added to each well. The cells were incubated at room temperature for 20 minutes. The whole of the fixative solution was removed and 60 μL of a 0.2% (v/v) Triton X-100 solution (Sigma) was dispensed to each well. The cells were incubated at room temperature for five minutes. The whole of the Triton X-100 solution was removed. A fat stain was prepared by dissolving Oil Red 0 (Sigma) in a 60% (v/v) isopropanol solution at 0.3% (w/v), and 60 μL of the fat stain was dispensed to each well. The cells were incubated at room temperature for 10 minutes. The whole of the fat stain was removed, and then 60 μL of a 60% (v/v) isopropanol solution was dispensed and removed. Thus, each well was washed twice. Thereafter, DMSO was added to each well at 100 μL per well, followed by stirring at room temperature for five minutes. […] The degree of adipocyte differentiation (%) of the test compound-added group was calculated assuming that the measured ABS550 of the positive control group was 100% and the measured ABS550 of the negative control group was 0.

[1] = Adipocyte, rat white adipocytes, test compound alone, 5 days, Oil Red O ABS550, read-out: EC50
[2] = Rattus norvegicus, degree of adipocyte differentiation, positive control (Compound A 3.3 nM) 100%, negative control 0, read-out: Emax (%)

EC50 [1]: 4.2 nM
SMILES: Cc1cc(Oc2ccc3nc(COc4cccc(C(=O)O)c4)n(C)c3c2)cc(C)c1N.Cl.Cl [Example 2, 3-{[6-(4-Amino-3,5-dimethylphenoxy)-1-methyl-1H-benzimidazol-2-yl]methoxy}benzoic acid dihydrochloride]
Emax [2]: 73%

EC50 [1]: 7.4 nM
SMILES: Cl.Cn1c(COc2cccc(C(=O)O)c2)nc2ccc(Oc3cccc(F)c3)cc21 [Example 8, 3-{[6-(3-Fluorophenoxy)-1-methyl-1H-benzimidazol-2-yl]methoxy}benzoic acid hydrochloride]
Emax [2]: 75%

EC50 [1]: 6.6 nM
SMILES: Cl.Cn1c(COc2cccc(C(=O)O)c2)nc2ccc(Oc3ccc(Cl)c(F)c3)cc21 [Example 10, 3-{[6-(4-Chloro-3-fluorophenoxy)-1-methyl-1H-benzimidazol-2-yl]methoxy}benzoic acid hydrochloride]
Emax [2]: 78%

EC50 [1]: 5.2 nM
SMILES: Cl.Cn1c(COc2cccc(C(=O)O)c2)nc2ccc(Oc3ccc(F)c(Cl)c3)cc21 [Example 12, 3-{[6-(3-Chloro-4-fluorophenoxy)-1-methyl-1H-benzimidazol-2-yl]methoxy}benzoic acid hydrochloride]
Emax [2]: 82%

Second part, the compound before the results:

SMILES: Cl.Cn1c(COc2cccc(C(=O)O)c2)nc2ccc(Oc3ccccc3)cc21 [Example 14, 3-[(1-Methyl-6-phenoxy-1H-benzimidazol-2-yl)methoxy]benzoic acid hydrochloride]
Emax (Rattus norvegicus, Adipocyte): 56%
EC50 (Rattus norvegicus, Adipocyte): 20 nM

SMILES: Cl.Cl.Cn1c(COc2cccc(C(=O)O)c2)nc2ccc(Oc3ccccc3)nc21 [Example 16, 3-[(3-Methyl-5-phenoxy-3H-imidazo[4,5-b]pyridin-2-yl)methoxy]benzoic acid dihydrochloride]
EC50 [1]: 64 nM
Emax [2]: 71%
